Entries after “also recorded” stand apart in the source; their conditions may differ.
Assays:
[1] = tested on: HUVEC adhesion to peptide 12; experiment: adhesion of HUVEC to peptide 12 in presence of chelating agents or anti-integrin antibodies; format: cell-based, human; details: HUVEC on plates covered with peptide 12
Method: The peptide 12 or the BSA, as non-specific adhesion control, were linked on plates and the HUVEC added in the presence of chelating agents (EDTA or EGTA).
The HUVEC were pre-incubated with an antibody against the integrin α5β1 or versus the integrinic subunit α6 and left to adhere on plates covered with peptide 12 or BSA.

[2] = tested on: HUVEC adhesion to fibronectin (FN); experiment: inhibition by peptides of EC adhesion to fibronectin; format: cell-based, human; details: peptide added to HUVEC suspension before plating
Method: (§1) In order to test the ability of the twelve chosen peptides to inhibit the adhesion of the EC to VEGFR-1 mediated from the integrin α5β1, every peptide was added to one suspension of HUVEC before plated on dishes covered with VEGFR-1/Fc or fibronectin (FN). The data were indicated as percentage of adhesion, calculated to the number of cells adhered on the substrate itself in absence of peptides.

[3] = tested on: HUVEC adhesion to VEGFR-1/Fc; experiment: inhibition by peptides of EC adhesion to VEGFR-1/Fc; format: cell-based, human; details: peptide added to HUVEC suspension before plating
Method: as §1

[4] = target: T1, integrin α5β1 (Homo sapiens, UniProt P05556+P08648); experiment: solid-phase binding of integrin α5β1 to alanine-substituted peptide 12 mutants; details: purified integrin α5β1 on plates covered with mutant peptides
Method: Was also assessed the direct binding to integrin α5β1 with mutant peptides by a binding test on solid phase. The integrin α5β1 purified was added to plates covered with the various peptides and the amount bound was measured using an antibody anti-integrin α5β1 with a calorimetric method. The data were expressed as percentage of protein linked observed on plates covered with the original peptide 12.

[5] = tested on: HUVEC; experiment: cellular adhesion of HUVEC to alanine-substituted peptide 12 mutants; format: cell-based, human; details: mutant peptides covalently linked to plates
Method: These peptides were tested for their ability to directly support the cellular adhesion. The ten peptides were covalently linked to plates, and were also tested, as negative controls, a peptide “scrambled” in which the amino acid sequence of the peptide 12 was modified (see Table 1.) (sP12) and BSA. The HUVEC were plated and allow to adhere. The results were expressed as percentage of the cellular adhesion observed on plates covered with the peptide 12.

[6] = target: T1, integrin α5β1; experiment: integrin α5β1 aggregation around peptide-coated magnetic beads (immunostaining); format: cell-based; set-up: endogenous in cells; host or cells: HUVEC; details: magnetic beads coated with peptide, immunostaining for integrin α5β1
Method: The integrins not linked are widely distributed on cellular membrane, but after the ligand binding and the activation merged in distinct structures called focal contacts and ECM contact.
(§2) It was examined whether the peptide 12 was able to induce aggregation of integrin α5β1 after the binding. EC adherent cells were incubated with magnetic beads coated with peptide 12, or peptide RGD or peptide RGE respectively as positive and negative controls, and immunostained with an antibody against integrin α5β1.

[7] = tested on: HUVEC; experiment: formation of tubules of EC in Type I collagen gel; format: cell-based, human
Method: It was tested the ability of the peptide 12 to induce the formation of tubules of EC. HUVEC cells were plated on 24 wells plates previously covered with a mixture of gel Type I collagen, in the absence or presence of 500 μg/ml peptide 12 or peptide 1. A second layer of gel Type I collagen was placed on the adherent cells. As shown, in the absence or presence of peptides, were added, in the culture medium, different concentrations of VEGF (40 or 100 nM), or 20 μg/ml of protein VEGFR-1/Fc.

[8] = tested on: HUVEC migration induced from VEGFR-1/Fc; experiment: EC migration in Boyden chambers induced by VEGFR-1/Fc; format: cell-based, human; details: HUVEC pre-incubated with peptide
Method: In order to investigate the ability to peptide 12 to influence the migration of the EC induced from VEGFR-1/Fc, a process mediated from the integrin α5β1, the HUVEC were pre-incubated with peptide 12 and peptide 1 and placed in Boyden chambers in order to analyze the migration induced from VEGFR-1/Fc or fibronectin (FN). Data represent the average of 14 microscopic fields and are referred to as percentage of inhibition compared to the migration observed in the absence of peptides.

[9] = target: T2, integrin α5β1 on endothelial cells derived from human umbilical vein (HUVEC) (human, UniProt P08648 42-1049; P05556 21-798); experiment: magnetic beads coated with peptide on adherent HUVEC, immunostaining for integrin α5β1
T2 construct: whole, on cells; Endogenous integrin on HUVEC in the adhesion, migration and bead tests; also called integrin α5β1 of the EC
Method: as §2

[10] = target: T1, integrin α5β1; experiment: solid-phase binding of purified integrin α5β1 to plates covered with dII or VEGFR-1/Fc; details: anti-integrin α5β1 antibody, colorimetric, absorbance at 405 nm
Method: The direct bind of the integrin α5β1 to the domain had been determined also with binding test on solid phase. The purified integrin α5β1 was added to plates covered with dII or with VEGFR-1/Fc like positive control and the integrin bound was measured using an antibody anti-integrin α5β1 and a colorimetric test.

T1 sequence (P08648 42-894 limits assumed): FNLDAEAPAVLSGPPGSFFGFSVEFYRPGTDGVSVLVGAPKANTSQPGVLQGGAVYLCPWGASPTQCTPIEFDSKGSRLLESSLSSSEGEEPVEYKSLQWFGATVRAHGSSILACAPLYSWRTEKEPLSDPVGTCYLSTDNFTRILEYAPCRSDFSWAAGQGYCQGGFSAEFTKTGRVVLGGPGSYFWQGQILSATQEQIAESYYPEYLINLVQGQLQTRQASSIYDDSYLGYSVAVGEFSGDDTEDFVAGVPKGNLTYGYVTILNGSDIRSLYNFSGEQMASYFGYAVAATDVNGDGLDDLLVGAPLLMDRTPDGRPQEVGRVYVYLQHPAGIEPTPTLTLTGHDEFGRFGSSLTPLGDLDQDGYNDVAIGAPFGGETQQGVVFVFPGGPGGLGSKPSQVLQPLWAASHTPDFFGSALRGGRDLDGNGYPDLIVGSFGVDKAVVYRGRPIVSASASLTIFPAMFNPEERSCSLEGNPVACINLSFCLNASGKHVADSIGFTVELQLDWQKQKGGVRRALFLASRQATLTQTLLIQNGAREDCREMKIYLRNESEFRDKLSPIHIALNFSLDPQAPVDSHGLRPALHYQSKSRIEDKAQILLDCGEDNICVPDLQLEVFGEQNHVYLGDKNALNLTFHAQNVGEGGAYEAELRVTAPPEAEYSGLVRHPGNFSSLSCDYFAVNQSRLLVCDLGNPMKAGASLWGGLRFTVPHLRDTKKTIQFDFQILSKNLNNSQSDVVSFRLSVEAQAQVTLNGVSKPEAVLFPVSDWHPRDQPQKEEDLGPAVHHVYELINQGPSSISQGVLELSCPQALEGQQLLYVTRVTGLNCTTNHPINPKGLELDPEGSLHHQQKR
T1 sequence (P08648 895-1049 partner limits assumed): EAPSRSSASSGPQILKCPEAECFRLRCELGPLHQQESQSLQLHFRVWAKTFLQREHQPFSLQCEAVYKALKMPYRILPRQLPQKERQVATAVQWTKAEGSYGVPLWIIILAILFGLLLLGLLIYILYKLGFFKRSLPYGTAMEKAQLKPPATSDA
T1 sequence (P05556 21-798): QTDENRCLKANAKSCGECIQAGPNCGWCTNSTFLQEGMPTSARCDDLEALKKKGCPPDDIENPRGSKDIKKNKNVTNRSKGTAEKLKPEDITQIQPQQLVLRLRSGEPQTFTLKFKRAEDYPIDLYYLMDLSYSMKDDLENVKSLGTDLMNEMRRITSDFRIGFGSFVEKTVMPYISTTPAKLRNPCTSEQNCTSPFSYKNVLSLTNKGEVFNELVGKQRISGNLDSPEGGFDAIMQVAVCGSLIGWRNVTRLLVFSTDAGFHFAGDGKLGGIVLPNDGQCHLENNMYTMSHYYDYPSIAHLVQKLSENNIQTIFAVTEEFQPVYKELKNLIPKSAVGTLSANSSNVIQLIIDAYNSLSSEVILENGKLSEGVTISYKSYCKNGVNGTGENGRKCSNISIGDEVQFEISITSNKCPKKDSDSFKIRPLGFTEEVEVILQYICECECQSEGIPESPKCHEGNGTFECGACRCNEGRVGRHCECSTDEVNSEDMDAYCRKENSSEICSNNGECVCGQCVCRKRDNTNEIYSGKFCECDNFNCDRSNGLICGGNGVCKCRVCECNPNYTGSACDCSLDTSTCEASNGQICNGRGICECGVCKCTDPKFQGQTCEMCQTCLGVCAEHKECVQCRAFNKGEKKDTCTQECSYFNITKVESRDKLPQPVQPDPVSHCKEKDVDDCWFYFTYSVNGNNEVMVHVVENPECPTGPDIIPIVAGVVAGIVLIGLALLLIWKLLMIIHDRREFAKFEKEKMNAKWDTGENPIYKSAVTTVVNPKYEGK
T2 sequence (P08648 42-1049, chain 1 of 2): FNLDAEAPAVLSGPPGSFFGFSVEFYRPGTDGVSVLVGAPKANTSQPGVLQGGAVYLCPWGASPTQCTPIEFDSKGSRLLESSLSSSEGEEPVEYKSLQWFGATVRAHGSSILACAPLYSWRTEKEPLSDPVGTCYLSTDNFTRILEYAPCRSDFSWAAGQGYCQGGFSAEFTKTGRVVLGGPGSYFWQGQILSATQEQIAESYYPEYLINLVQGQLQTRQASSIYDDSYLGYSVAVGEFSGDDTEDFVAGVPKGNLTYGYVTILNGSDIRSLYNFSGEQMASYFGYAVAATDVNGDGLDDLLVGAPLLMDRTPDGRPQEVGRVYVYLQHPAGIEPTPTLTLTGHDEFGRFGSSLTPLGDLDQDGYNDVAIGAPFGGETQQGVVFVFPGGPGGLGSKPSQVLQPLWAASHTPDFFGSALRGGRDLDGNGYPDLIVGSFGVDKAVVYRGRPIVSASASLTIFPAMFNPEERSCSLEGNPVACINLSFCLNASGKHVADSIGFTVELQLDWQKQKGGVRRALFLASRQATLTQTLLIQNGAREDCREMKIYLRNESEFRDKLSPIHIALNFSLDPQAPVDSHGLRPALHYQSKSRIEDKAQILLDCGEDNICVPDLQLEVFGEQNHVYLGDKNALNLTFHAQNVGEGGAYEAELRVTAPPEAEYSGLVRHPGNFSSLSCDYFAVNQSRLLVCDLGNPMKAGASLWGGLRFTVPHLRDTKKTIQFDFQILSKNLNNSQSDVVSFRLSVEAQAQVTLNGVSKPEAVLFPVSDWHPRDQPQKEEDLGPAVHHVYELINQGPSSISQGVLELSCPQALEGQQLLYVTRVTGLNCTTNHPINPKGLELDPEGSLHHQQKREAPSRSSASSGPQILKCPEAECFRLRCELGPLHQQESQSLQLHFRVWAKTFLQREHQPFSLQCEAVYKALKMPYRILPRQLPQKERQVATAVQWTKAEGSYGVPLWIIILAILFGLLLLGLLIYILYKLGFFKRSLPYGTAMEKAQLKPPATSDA
T2 sequence (P05556 21-798, chain 2 of 2): as the sequence (P05556 21-798) above

O=C(O)CN(CCN(CC(=O)O)CC(=O)O)CC(=O)O [EDTA, reference compound]
effect of agent on adhesion of EC to peptide 12 [1]: completely abolished adhesion of EC

O=C(O)CN(CCOCCOCCN(CC(=O)O)CC(=O)O)CC(=O)O [EGTA, reference compound]
effect of agent on adhesion of EC to peptide 12 [1]: completely abolished adhesion of EC

TEGRELVIPARVT (listed as Homo sapiens) [peptide 4]
inhibition of adhesion of EC to fibronectin [2]: partially inhibit
inhibition of adhesion of EC to VEGFR-1/Fc [3]: effectively blocked; also recorded: inhibit cellular adhesion to sVEGFR-1

Y220A: peptide 12 with Tyr 220 replaced with alanine (NALTHRQ)
role of replaced residue in integrin α5β1 binding to mutant peptide relative to peptide 12 [4]: residue more critical to the integrin binding
cellular adhesion to mutant peptide relative to peptide 12 [5]: significantly reduce
cellular adhesion to mutant peptide relative to peptide 12 ([5]; listed as Tyr 220 with ALA): completely abolished cellular adhesion

His 223 peptide mutant in Ala: peptide 12 with His 223 mutated to alanine (NYLTARQ)
role of replaced residue in integrin α5β1 binding to mutant peptide relative to peptide 12 [4]: important in supporting the protein/protein interaction
cellular adhesion to mutant peptide relative to peptide 12 [5]: comparable
cellular adhesion to mutant peptide relative to peptide 12 ([5]; listed as His 223): significantly reduce

KFPLDTLIPDG (listed as Homo sapiens) [peptide 7]
inhibition of adhesion of EC to fibronectin [2]: partially inhibit
inhibition of adhesion of EC to VEGFR-1/Fc [3]: effectively blocked; also recorded: inhibit cellular adhesion to sVEGFR-1

RGE [peptide RGE, reference compound]
integrin α5β1 aggregation / bead attachment on EC [6]: No beads covered with the peptide RGE was attached with HUVEC

GRPFVEMYSE (listed as Homo sapiens) [peptide 1, used as negative control]
effect on VEGF-induced tubule formation ([7]; 500 μg/ml peptide with VEGF 40 nM): neither increased the effect of VEGF
induction of formation of tubules of EC ([7]; 500 μg/ml peptide, collagen I matrix): did not induce the formation of tubules
inhibition of EC migration induced by VEGFR-1/Fc [8]: completely ineffective

B1: peptide 12 (NYLTHRQ, VEGFR-1 residues 219-225) (peptide)
peptide: NYLTHRQ
notes: Covalently linked to plates or coated on magnetic beads, or added in solution to HUVEC; also called P12; original peptide 12
binding result [9]: binds

B2: VEGFR-1/Fc: sVEGFR-1 fusion protein with the Fc domain of human immunoglobulins (protein)
chain: SKLKDPELSLKGTQHIMQAGQTLHLQCRGEAAHKWSLPEMVSKESERLSITKSACGRNGKQFCSTLTLNTAQANHTGFYSCKYLAVPTSKKKETESAIYIFISDTGRPFVEMYSEIPEIIHMTEGRELVIPCRVTSPNITVTLKKFPLDTLIPDGKRIIWDSRKGFIISNATYKEIGLLTCEATVNGHLYKTNYLTHRQTNTIIDVQISTPRPVKLLRGHTLVLNCTATTPLNTRVQMTWSYPDEKNKRASVRRRIDQSNSHANIFYSVLTIDKMQNKDKGLYTCRVRSGPSFKSVNTSVHIYDKAFITVKHRKQQVLETVAGKRSYRLSMKVKAFPSPEVVWLKDGLPATEKSARYLTRGYSLIIKDVTEEDAGNYTILLSIKQSNVFKNLTATLIVNVKPQIYEKAVSSFPDPALYPLGSRQILTCTAYGIPQPTIKWFWHPCNHNHSEARCDFCSNNEESFILDADSNMGNRIESITQRMAIIEGKNKMASTLVVADSRISGIYICIASNKVGTVGRNISFYITDVPNGFHVNLEKMPTEGEDLKLSCTVNKFLYRDVTWILLRTVNNRTMHYSISKQKMAITKEHSITLNLTIMNVSLQDSGTYACRARNVYTGEEILQKKEITIRGEHCNKKAVFSRISKFKSTRNDCTTQSNVKH
modifications: left off: a dimerising Fc or GST
notes: sVEGFR-1 fusion protein with the Fc domain of human immunoglobulins
amount of integrin α5β1 bound to coated protein [10]: a similar amount of integrin interacted
effect of VEGFR-1/Fc on constitution of tubules ([7]; 20 μg/ml VEGFR-1/Fc in culture medium): strong inhibition of the constitution of tubules
